Source: patent publication US5874442A, “Tricyclic amides useful for inhibition of G-protein function and for treatment of proliferative disease” (Schering-Plough Corporation, priority 1996, dated 1999)

What was measured:
Format in all cases: cell-based
[1] = tested on: H ras NIH 3T3; experiment: Soft agar assay; details: Mus musculus, NIH3T3, read-out: IC50, inhibition of human tumor cell growth, soft agar
[2] = tested on: PC3 (prostate); experiment: Soft agar assay; details: Homo sapiens, read-out: IC50, inhibition of human tumor cell growth, soft agar
Method: (§1) Anchorage-independent growth is a characteristic of tumorigenic cell lines. Human tumor cells are suspended in growth medium containing 0.3% agarose and an indicated concentration of a farnesyl transferase inhibitor. The solution is overlayed onto growth medium solidified with 0.6% agarose containing the same concentration of farnesyl transferase inhibitor as the top layer. After the top layer is solidified, plates are incubated for 10-16 days at 37° C. under 5% CO2 to allow colony outgrowth. After incubation, the colonies are stained by overlaying the agar with a solution of MTT (3-[4,5-dimethylthiazol-2-yl]-2,5-diphenyltetrazolium bromide, Thiazolyl blue) (1 mg/mL in PBS). Colonies are counted and the IC50's determined.

[3] = tested on: HTB 173 (NCI H146); experiment: Soft agar assay; details: Homo sapiens; HTB 173 (NCI H146) (SCLC) ras mut. not detected; read-out: IC50, inhibition of human tumor cell growth, soft agar
Method: as §1

[4] = tested on: DU 145; experiment: Soft agar assay; details: Homo sapiens; DU 145 (prostate) ras mut. not detected; read-out: IC50, inhibition of human tumor cell growth, soft agar
Method: as §1

[5] = tested on: AsPc-1; experiment: Soft agar assay; details: Homo sapiens, ASPC1; AsPc-1 (pancreatic) K ras mutation; read-out: IC50, inhibition of human tumor cell growth, soft agar
Method: as §1

[6] = tested on: MDA MB453 (breast); experiment: Soft agar assay; details: Homo sapiens, MDA-MB-453, read-out: IC50, inhibition of human tumor cell growth, soft agar
Method: as §1

[7] = tested on: HBL100; experiment: Soft agar assay; details: Homo sapiens, HBL-100; HBL100 (breast) ras mut. not detected; read-out: IC50, inhibition of human tumor cell growth, soft agar
Method: as §1

[8] = tested on: MDA MB 468; experiment: Soft agar assay; details: Homo sapiens; MDA MB 468 (breast) ras mut. not detected; read-out: IC50, inhibition of human tumor cell growth, soft agar
Method: as §1

[9] = tested on: Du4475; experiment: Soft agar assay; details: Homo sapiens, DU-4475; Du4475 (breast) ras mut. not detected; read-out: IC50, inhibition of human tumor cell growth, soft agar
Method: as §1

[10] = tested on: HTB 183 (NCI H661); experiment: Soft agar assay; details: Homo sapiens; HTB 183 (NCI H661) (NSCLC) ras mut. not detected; read-out: IC50, inhibition of human tumor cell growth, soft agar
Method: as §1

[11] = tested on: SW620-BAG human colon carcinoma cells expressing an activated K-ras gene; experiment: Cell mat assay, SW620-BAG tumor cells; details: Homo sapiens, SW-620, 336 h, read-out: Tumor (SW620) IC50, Mat assay, 14 d
Method: (§2) Compound-induced colony inhibition was assayed by addition of serial dilutions of compound directly to the growth medium 24 h after tumor cell planting, and incubating cells for an additional 14 d to allow colony formation. Assays were terminated by rinsing monolayers twice with phosphate-buffered saline (PBS), fixing the monolayers with a 1% glutaraldehyde solution in PBS, then visualizing tumor cells by staining with X-Gal (Price, J., et al., Lineage analysis in the vertebrate nervous system by retrovirus-mediated gene transfer, Proc. Natl. Acad. Sci.84, 156-160(1987)). […] Both IC50 values were obtained by determining the density of tumor cells and mat cells by visual inspection and enumeration of cells per colony and the number of colonies under the microscope.
Additional assays were carried out by following essentially the same procedure as described above, but with substitution of alternative indicator tumor cell lines in place of the T24-BAG cells. The assays were conducted using either DLD-1-BAG human colon carcinoma cells expressing as activated K-ras gene or SW620-BAG human colon carcinoma cells expressing an activated K-ras gene.

[12] = tested on: Normal human HEPM fibroblasts; experiment: Cell mat assay, normal cells (cell mat); details: Homo sapiens, Fibroblast, 336 h, read-out: Normal IC50
Method: as §2

SMILES: NC(=O)N1CCC(CC(=O)N2CCC([C@H]3c4ncc(Br)cc4CCc4cc(Cl)cc(Br)c43)CC2)CC1 [Example 10]
- IC50 [1]: 75 nM
- IC50 [2]: 1250 nM
- IC50 [3]: 50 nM
- IC50 [4]: 600 nM
- IC50 [5]: 3000 nM
- IC50 [6]: 600 nM
- IC50 [7]: < 600 nM
- IC50 [8]: 600 nM
- IC50 [9]: 600 nM
- IC50 [10]: 500 nM
- IC50 [11]: 3100 nM
- IC50 [12]: > 25000 nM
